Results from patent US9260429B2, “Pyrido[3,4-B]indoles and methods of use” (Medivation Technologies, Inc., priority 2008, dated 2016).

Experiments:
[1] = target: T1, human recombinant serotonin (5-Hydroxytryptamine) 5-HT2A receptor (Homo sapiens, UniProt P28223); experiment: Serotonin 5-HT2A radioligand binding ([3H]Ketanserin); conditions: 1 h; read-out: Percent Inhibition of ligand binding Serotonin (1 μM ligand concentration) 5-HT2A
T1 construct: expressed in transfected cells; host or cells: CHO-K1 cells
T1 sequence (P28223 whole entry): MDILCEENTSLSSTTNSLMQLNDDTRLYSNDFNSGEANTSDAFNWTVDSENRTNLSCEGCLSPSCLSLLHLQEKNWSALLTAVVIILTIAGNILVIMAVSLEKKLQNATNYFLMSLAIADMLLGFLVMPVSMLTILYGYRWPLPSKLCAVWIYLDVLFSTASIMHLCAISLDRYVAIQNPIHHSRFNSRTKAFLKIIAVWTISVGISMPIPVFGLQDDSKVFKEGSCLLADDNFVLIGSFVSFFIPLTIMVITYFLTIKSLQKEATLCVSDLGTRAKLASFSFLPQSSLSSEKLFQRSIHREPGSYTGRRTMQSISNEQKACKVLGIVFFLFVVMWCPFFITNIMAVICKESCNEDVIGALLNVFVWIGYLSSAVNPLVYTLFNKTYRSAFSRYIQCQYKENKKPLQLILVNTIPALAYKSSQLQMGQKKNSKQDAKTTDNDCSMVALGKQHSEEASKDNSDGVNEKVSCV
Method: To evaluate in radioligand binding assays the activity of compounds of the invention, human recombinant serotonin (5-Hydroxytryptamine) 5-HT2A receptor expressed in Chinese hamster ovary (CHO-K1) cells (Bonhaus, D. W. et al. Br. J. Pharmacol. 115:622, 1995; Saucier, C. and Albert, P. R., J. Neurochem. 68:1998, 1997) in a 50 mM Tris-HCl buffer, pH 7.4, was used. Compounds of the invention were incubated with 0.5 nM [^3H]Ketanserin for 60 minutes at 25° C. Non-specific binding was estimated in the presence of 1 μM Mianserin. Receptor proteins were filtered and washed, the filters were then counted to determine [^3H]Ketanserin specifically bound. Compounds were screened at 1 μM or lower, using 1% DMSO as vehicle. Biochemical assay results are presented as the percent inhibition of specific binding in Table 5.

[2] = target: T2, human recombinant histamine H2 receptor (Homo sapiens, UniProt P25021); experiment: Histamine H2 radioligand binding ([125I]Aminopotentidine); conditions: 1 μM; inhibition of specific [125I]Aminopotentidine binding; read-out: Binding data (Percentage Inhibition) Histamine Binding (1 μM) H2
T2 construct: expressed in transfected cells; host or cells: CHO-K1 cells
T2 sequence (P25021 whole entry): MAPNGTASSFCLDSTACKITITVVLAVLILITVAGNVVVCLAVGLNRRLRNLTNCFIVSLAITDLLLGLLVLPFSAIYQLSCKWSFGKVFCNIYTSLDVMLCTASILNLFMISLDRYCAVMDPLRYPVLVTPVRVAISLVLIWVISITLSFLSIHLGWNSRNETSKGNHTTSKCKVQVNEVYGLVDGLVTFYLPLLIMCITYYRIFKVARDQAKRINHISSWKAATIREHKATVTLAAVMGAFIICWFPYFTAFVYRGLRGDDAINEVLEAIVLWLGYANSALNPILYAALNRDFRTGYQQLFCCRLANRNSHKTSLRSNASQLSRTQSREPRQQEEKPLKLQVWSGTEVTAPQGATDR
Method: To evaluate in radioligand binding assays the activity of compounds of the invention, human recombinant histamine H2 receptor expressed in Chinese hamster ovary (CHO) K1 cells (Ruat, M., Proc. Natl. Acad. Sci. USA. 87(5):1658, 1990) in a 50 mM Phosphate buffer, pH 7.4 was used. Compounds of the invention were incubated with 0.1 nM [^125I]Aminopotentidine for 120 minutes at 25° C. Non-specific binding was estimated in the presence of 3 μM Tiotidine. Receptor proteins were filtered and washed, the filters were then counted to determine [^125I]Aminopotentidine specifically bound. Compounds were screened at 1 μM or lower, using 1% DMSO as vehicle. Biochemical assay results are presented as the percent inhibition of specific binding in Table 3.

[3] = target: T3, human recombinant dopamine D2L receptor (Homo sapiens, UniProt P14416); experiment: Dopamine D2L radioligand binding ([3H]Spiperone); conditions: 2 h, 1 μM ligand conc.; read-out: Percent Inhibition of ligand binding Dopamine (1 μM ligand conc.) D2L
T3 construct: expressed in transfected cells; host or cells: CHO cells
T3 sequence (P14416 whole entry): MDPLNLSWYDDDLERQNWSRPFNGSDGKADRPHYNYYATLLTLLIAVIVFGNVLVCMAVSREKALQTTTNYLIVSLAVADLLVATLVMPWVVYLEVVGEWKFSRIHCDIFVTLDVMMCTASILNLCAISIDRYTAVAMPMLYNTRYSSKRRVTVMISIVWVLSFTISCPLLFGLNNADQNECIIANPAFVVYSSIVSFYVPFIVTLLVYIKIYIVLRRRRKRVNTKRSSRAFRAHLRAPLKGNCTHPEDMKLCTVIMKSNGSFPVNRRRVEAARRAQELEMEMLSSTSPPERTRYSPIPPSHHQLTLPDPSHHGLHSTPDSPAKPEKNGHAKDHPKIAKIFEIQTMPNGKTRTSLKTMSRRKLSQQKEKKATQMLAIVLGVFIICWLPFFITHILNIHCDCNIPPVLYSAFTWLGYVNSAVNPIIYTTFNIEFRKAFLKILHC
Method: To evaluate in radioligand binding assays the activity of compounds of the invention, human recombinant dopamine D2L receptor expressed in Chinese hamster ovary (CHO) cells (Grandy, D. K. et al. Proc. Natl. Acad. Sci. USA. 86:9762, 1989; Hayes, G. et al., Mol. Endocrinol. 6:920, 1992) in a modified Tris-HCl buffer (50 mM Tris-HCl, pH 7.4, 1.4 mM Ascorbic Acid, 0.001% BSA, 150 mM NaCl) was used. Compounds of the invention were incubated with 0.16 nM [^3H]Spiperone for 120 minutes at 25° C. Non-specific binding was estimated in the presence of […] Haloperidol. Receptor proteins were filtered and washed, the filters were then counted to determine [^3H]Spiperone specifically bound. Compounds were screened at 1 μM or lower, using 1% DMSO as vehicle. Biochemical assay results are presented as the percent inhibition of specific binding in Table 4.

[4] = target: T4, human recombinant serotonin (5-Hydroxytryptamine) 5-HT7 receptor (Homo sapiens, UniProt P34969); experiment: Serotonin 5-HT7 radioligand binding ([3H]LSD); conditions: 2 h; read-out: Percent Inhibition of ligand binding Serotonin (1 μM ligand concentration) 5-HT7
T4 construct: expressed in transfected cells; host or cells: CHO cells
T4 sequence (P34969 whole entry): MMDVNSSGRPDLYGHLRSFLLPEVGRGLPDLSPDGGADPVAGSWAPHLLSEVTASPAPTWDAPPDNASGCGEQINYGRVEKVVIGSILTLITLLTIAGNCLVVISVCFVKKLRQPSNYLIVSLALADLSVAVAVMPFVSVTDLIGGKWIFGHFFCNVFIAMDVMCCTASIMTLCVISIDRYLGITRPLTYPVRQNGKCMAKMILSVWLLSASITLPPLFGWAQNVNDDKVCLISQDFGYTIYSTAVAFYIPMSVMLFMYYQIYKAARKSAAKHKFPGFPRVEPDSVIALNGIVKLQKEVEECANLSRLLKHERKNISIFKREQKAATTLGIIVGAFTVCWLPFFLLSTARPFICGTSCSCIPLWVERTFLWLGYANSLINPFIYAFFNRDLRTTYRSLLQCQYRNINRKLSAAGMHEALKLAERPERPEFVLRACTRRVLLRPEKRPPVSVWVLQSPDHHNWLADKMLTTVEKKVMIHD
Method: To evaluate in radioligand binding assays the activity of compounds of the invention, human recombinant serotonin (5-Hydroxytryptamine) 5-HT7 receptor expressed in Chinese hamster ovary (CHO) cells (Roth, B. L. et al., J. Pharmacol. Exp. Ther. 268:1403, 1994; Shen, Y. et al., J. Biol. Chem. 268:18200, 1993) in a modified Tris-HCl buffer (50 mM Tris-HCl, pH 7.4, 10 mM MgCl2, 0.5 mM EDTA) was used. Compounds of invention were incubated with 5.5 nM [^3H]Lysergic acid diethylamide (LSD) for 2 hours at 25° C. Non-specific binding was estimated in the presence of […] Serotonin (5-HT). Receptor proteins were filtered and washed, the filters were then counted to determine [^3H]LSD specifically bound. Compounds were screened at 1 μM or lower, using 1% DMSO as vehicle. Biochemical assay results are presented as the percent inhibition of specific binding in Table 5.

[5] = target: T5, human recombinant serotonin (5-Hydroxytryptamine) 5-HT2C receptor (Homo sapiens, UniProt P28335); experiment: Serotonin 5-HT2C radioligand binding ([3H]Mesulergine); conditions: 1 h; read-out: Percent Inhibition of ligand binding Serotonin (1 μM ligand concentration) 5-HT2C
T5 construct: expressed in transfected cells; host or cells: CHO-K1 cells
T5 sequence (P28335 33-458): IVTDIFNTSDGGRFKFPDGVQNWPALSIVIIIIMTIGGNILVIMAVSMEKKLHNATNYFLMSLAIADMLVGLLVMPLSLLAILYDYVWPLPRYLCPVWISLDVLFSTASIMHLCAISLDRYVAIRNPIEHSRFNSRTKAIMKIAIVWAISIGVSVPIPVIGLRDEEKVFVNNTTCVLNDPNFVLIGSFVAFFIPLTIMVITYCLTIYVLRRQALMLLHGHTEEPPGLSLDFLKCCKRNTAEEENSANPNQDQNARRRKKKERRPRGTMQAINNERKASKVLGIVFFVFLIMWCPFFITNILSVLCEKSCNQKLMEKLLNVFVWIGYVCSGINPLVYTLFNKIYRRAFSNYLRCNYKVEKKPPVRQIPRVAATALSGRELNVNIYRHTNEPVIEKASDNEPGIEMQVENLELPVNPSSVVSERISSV
Method: Compounds of the invention were incubated with 1 nM [^3H]Mesulergine for 60 minutes at 25° C. Non-specific binding was estimated in the presence of 1 μM Mianserin. Receptor proteins were filtered and washed, the filters were then counted to determine [^3H]Mesulergine specifically bound. […] Biochemical assay results are presented as the percent inhibition of specific binding in Table 5.

[6] = target: T6, human recombinant histamine H1 receptor (Homo sapiens, UniProt P35367); experiment: Histamine H1 radioligand binding ([3H]Pyrilamine); conditions: 1 μM; read-out: Binding data (Percentage Inhibition) Histamine Binding (1 μM) H1
T6 construct: expressed in transfected cells; host or cells: CHO cells
T6 sequence (P35367 whole entry): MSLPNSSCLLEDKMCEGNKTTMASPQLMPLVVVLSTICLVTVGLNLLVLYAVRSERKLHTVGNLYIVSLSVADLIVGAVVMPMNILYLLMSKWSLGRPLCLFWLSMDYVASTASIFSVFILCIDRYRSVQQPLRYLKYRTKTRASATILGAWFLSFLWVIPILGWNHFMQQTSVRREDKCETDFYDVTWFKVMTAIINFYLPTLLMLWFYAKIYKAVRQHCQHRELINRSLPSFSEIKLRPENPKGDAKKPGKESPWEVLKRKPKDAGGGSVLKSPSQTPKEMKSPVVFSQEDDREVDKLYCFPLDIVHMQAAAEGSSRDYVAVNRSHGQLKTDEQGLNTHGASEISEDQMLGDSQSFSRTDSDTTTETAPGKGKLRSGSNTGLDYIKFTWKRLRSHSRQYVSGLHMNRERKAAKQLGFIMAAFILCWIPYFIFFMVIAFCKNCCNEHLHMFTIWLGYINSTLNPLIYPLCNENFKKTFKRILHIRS
Method: To evaluate in radioligand binding assays the activity of compounds of the invention, human recombinant histamine H1 receptor expressed in Chinese hamster ovary (CHO) cells (De Backer, M. D. et al., Biochem. Biophys. Res. Comm. 197(3):1601, 1993) in a modified Tris-HCl buffer (50 mM Tris-HCl, pH 7.4, 2 mM MgCl2, 100 mM NaCl, 250 mM Sucrose) was used. Compounds of the invention were incubated with 1.2 nM [^3H]Pyrilamine for 180 minutes at 25° C. Non-specific binding was estimated in the presence of 1 μM pyrilamine. Receptor proteins were filtered and washed, the filters were then counted to determine [^3H]Pyrilamine specifically bound. […] Biochemical assay results are presented as the percent inhibition of specific binding in Table 3.

[7] = target: T7, human recombinant serotonin (5-Hydroxytryptamine) 5-HT6 receptor (Homo sapiens, UniProt P50406); experiment: Serotonin 5-HT6 radioligand binding ([3H]LSD); conditions: 2 h; read-out: Percent Inhibition of ligand binding Serotonin (1 μM ligand concentration) 5-HT6
T7 construct: expressed in transfected cells; host or cells: human HeLa cells
T7 sequence (P50406 whole entry): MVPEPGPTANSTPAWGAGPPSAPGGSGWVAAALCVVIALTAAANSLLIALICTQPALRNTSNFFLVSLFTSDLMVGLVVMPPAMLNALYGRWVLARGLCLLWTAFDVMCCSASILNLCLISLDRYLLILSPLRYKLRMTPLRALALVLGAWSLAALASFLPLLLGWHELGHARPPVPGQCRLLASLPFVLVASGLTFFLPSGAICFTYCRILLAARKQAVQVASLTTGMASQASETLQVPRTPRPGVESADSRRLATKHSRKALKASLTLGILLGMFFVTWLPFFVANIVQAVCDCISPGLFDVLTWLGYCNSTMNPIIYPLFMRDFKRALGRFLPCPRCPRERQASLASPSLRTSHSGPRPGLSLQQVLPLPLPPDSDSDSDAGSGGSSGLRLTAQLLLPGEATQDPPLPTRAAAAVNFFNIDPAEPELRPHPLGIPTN
Method: To evaluate in radioligand binding assays the activity of compounds of the invention, human recombinant serotonin (5-Hydroxytryptamine) 5-HT6 receptor expressed in human HeLa cells (Monsma, F. J. Jr. et al., Mol. Pharmacol. 43:320, 1993) in a modified Tris-HCl buffer (50 mM Tris-HCl, pH 7.4, 150 mM NaCl, 2 mM Ascorbic Acid, 0.001% BSA) was used. Compounds of the invention were incubated with 1.5 nM [3H]Lysergic acid diethylamide (LSD) for 120 minutes at 37° C. Non-specific binding was estimated in the presence of […] Serotonin (5-HT). Receptor proteins were filtered and washed, the filters were then counted to determine [3H]LSD specifically bound. Compounds were screened at 1 μM or lower, using 1% DMSO as vehicle. Biochemical assay results are presented as the percent inhibition of specific binding in Table 5.

| SMILES | inhibition at 1 µM [1] [%] | inhibition at 1 µM [2] [%] | inhibition at 1 µM [3] [%] | inhibition at 1 µM [4] [%] | inhibition at 1 µM [5] [%] | inhibition at 1 µM [6] [%] | inhibition at 1 µM [7] [%] |
| --- | --- | --- | --- | --- | --- | --- | --- |
| CCC1c2c(c3cc(Cl)ccc3n2C(=O)Cc2ccc(F)cc2)CCN1C (stereo not drawn) [Compound 171] | 80 | 17 | 5 | 13 | 92 | 15 | 36 |
| Cc1ccc2c(c1)c1c(n2C#Cc2ccc(Cl)cc2)C(C)N(C)CC1 (stereo not drawn) [Compound 172, 9-((4-chlorophenyl)ethynyl)-1,2,6-trimethyl-2,3,4,9-tetrahydro-1H-pyrido[3,4-b]indole] | 96 | 45 | 1 | 1 | 100 | 11 | 10 |
| Cc1ccc2c(c1)c1c(n2C(=O)Cc2ccc(Cl)cc2)CN(C)CC1 [Compound 173] | 95 | 49 | 22 | 81 | 90 | 12 | 48 |
| C/C(=C/n1c2c(c3cc(C)ccc31)CCN(C)C2C)c1ccc(F)c(F)c1 (stereo not drawn) [Compound 175, 9-(2-(3,4-difluorophenyl)prop-1-enyl)-1,2,6-trimethyl-2,3,4,9-tetrahydro-1H-pyrido[3,4-b]indole] | 86 | 60 | 0 | 82 | 97 | 25 | 77 |
| CCC1c2c(c3cc(C)ccc3n2/C=C(\C)c2ccc(F)c(F)c2)CCN1C (stereo not drawn) [Compound 176, (E)-9-(2-(3,4-difluorophenyl)prop-1-enyl)-1-ethyl-2,6-dimethyl-2,3,4,9-tetrahydro-1H-pyrido[3,4-b]indole] | 81 | 26 | -2 | 53 | 94 | 17 | 26 |
| CCC1c2c(c3cc(C)ccc3n2/C=C(\C)c2ccc(Cl)c(Cl)c2)CCN1C (stereo not drawn) [Compound 177, 9-(2-(3,4-dichlorophenyl)prop-1-enyl)-1-ethyl-2,6-dimethyl-2,3,4,9-tetrahydro-1H-pyrido[3,4-b]indole] | 83 | 39 | 9 | 57 | 88 | 11 | 6 |
